The source made the active and inactive calls.
Experiments:
[1] = molecular target: Genome polyprotein (dengue virus type 2, UniProt P29990); experiment: flavivirus cap methylation enzyme inhibition – biochemical, confirmation dose response, primary screen (AID 588689); format: functional
[2] = tested on: Vero; experiment: viability of Vero cells under compound – cytotoxicity control for flavivirus capping enzyme inhibitors (AID 588742); format: functional; settings: Chlorocebus sabaeus
[3] = tested on: HEK293; experiment: EBV LMP1 TES2 canonical NF-kB signalling blockers – cell-based, HEK293, luciferase, cherry-pick, dose response (AID 588343); format: functional; settings: Homo sapiens
[4] = tested on: Streptococcus sp. 'group A'; experiment: Streptococcus pyogenes SK(-)GAS viability under kanamycin – luminescence, BacTiterGlo, confirmation, counter-screen for streptokinase expression inhibitor project, dose response (AID 1900); format: functional, organism-based
[5] = luciferase reporter signal suppression in cells – H4 neuroglioma cells, luminescence, dose response (AID 1990); format: functional, cell-based
[6] = Luminescence Cell-Based Dose Response HTS to Identify Inhibitors of 5'UTR Stem-Loop Driven Prion Protein mRNA Translation in H4 Neuroglioblastoma Cells. [Related pubchem assays: 1827 (Project Summary), 1813 (Primary HTS)]; format: functional
[7] = tested on: Streptococcus; experiment: GAS UMAA2166 growth inhibition – luminescence, BacTiterGlo, counter-screen for streptokinase expression inhibitor project, dose response (AID 1915); format: functional, organism-based;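 also: potency for reduction of bacterial viability or growth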
[8] = tested on: Vero; experiment: cells; format: functional; settings: Chlorocebus sabaeus
[9] = molecular target: Cytochrome P450 2C19 (Homo sapiens, UniProt P33261); experiment: Cytochrome panel assay with activity outcomes. Panel member name: p450-cyp2c19 Compounds with AC50 equal or less than 10 uM are considered active; format: functional; settings: read-out: AC50
Sequence of Cytochrome P450 2C19 (P33261 whole entry): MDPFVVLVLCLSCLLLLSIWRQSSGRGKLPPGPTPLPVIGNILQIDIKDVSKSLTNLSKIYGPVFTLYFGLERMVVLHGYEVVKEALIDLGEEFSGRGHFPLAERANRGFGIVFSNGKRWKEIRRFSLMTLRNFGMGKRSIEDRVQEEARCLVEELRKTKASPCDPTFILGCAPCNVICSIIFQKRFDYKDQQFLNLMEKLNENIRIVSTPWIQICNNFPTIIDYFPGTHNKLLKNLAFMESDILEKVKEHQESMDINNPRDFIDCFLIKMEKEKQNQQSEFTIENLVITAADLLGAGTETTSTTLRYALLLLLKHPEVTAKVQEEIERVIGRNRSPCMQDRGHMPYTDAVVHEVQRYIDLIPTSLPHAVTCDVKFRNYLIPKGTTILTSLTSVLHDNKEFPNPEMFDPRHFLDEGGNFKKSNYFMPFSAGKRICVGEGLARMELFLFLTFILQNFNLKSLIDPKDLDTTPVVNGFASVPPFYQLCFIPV

[10] = molecular target: Cytochrome P450 3A4 (Homo sapiens, UniProt P08684);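 also: CYP3A4 tested as one member of a cytochrome P450 panel screen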
Sequence of Cytochrome P450 3A4 (P08684 whole entry): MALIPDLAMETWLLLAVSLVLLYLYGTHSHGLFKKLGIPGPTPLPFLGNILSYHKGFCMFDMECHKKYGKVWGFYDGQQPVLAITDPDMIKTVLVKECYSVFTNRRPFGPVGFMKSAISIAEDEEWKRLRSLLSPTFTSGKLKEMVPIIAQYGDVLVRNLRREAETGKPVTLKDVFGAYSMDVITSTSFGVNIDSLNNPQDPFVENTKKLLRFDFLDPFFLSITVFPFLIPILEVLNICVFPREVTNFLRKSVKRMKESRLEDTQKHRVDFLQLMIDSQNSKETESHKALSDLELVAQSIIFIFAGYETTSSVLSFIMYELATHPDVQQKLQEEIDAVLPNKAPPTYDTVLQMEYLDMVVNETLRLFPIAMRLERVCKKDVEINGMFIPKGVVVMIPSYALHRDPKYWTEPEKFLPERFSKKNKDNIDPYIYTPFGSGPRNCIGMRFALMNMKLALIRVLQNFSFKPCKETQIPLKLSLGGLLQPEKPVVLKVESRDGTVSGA

[11] = molecular target: Cytochrome P450 2C9 (Homo sapiens, UniProt P11712)
Sequence of Cytochrome P450 2C9 (P11712 whole entry): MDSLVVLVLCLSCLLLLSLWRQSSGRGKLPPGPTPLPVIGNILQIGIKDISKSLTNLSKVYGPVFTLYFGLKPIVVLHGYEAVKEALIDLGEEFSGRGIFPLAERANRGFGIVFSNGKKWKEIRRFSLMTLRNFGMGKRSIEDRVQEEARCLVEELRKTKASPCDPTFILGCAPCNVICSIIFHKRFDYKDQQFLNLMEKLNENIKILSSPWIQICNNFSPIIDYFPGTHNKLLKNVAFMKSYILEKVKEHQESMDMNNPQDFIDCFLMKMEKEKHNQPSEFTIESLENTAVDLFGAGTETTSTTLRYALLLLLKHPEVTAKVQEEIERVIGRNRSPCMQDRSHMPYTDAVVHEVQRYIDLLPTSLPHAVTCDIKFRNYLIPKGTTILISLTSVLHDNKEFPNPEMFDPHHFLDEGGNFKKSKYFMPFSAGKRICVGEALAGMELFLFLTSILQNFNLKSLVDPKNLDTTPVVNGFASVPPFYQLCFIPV

[12] = molecular target: T1, Histone-lysine N-methyltransferase NSD2 (Homo sapiens, UniProt O96028); format: biochemical
T1 sequence (O96028 whole entry): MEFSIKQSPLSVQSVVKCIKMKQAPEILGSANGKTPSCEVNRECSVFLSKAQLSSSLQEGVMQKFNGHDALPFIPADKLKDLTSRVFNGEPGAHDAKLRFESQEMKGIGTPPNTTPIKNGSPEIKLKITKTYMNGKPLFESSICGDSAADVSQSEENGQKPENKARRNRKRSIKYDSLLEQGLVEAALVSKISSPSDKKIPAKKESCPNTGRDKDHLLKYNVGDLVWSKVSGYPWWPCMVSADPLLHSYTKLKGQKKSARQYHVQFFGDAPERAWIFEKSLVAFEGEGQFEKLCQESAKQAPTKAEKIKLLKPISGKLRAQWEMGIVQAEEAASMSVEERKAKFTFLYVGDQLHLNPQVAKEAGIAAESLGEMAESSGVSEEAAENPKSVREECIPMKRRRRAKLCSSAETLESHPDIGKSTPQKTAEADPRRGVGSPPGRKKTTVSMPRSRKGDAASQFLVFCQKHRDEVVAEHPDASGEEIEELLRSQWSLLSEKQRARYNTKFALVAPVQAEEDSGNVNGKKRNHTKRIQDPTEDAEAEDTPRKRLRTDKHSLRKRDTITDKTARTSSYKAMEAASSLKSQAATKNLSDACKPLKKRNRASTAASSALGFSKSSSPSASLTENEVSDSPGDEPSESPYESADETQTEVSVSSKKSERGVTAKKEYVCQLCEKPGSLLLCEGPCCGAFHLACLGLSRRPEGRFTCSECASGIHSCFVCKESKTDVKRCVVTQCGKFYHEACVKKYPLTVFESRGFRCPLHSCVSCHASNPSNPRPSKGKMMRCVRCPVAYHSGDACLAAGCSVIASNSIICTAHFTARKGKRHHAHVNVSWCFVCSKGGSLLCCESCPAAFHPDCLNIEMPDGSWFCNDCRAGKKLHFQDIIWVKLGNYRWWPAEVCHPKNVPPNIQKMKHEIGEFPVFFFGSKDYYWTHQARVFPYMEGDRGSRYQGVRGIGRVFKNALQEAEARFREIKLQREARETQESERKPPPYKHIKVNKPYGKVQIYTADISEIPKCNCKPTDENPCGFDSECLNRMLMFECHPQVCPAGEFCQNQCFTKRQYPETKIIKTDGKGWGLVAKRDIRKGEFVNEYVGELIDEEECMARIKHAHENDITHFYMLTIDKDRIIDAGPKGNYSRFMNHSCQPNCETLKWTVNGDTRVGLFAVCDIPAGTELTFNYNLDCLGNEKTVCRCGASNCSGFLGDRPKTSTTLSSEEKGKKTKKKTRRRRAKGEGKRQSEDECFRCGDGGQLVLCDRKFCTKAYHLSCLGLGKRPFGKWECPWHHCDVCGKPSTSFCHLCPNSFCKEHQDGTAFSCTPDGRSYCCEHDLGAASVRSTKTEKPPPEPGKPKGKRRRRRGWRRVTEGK

[13] = molecular target: T2, Sentrin-specific protease 8 (Homo sapiens, UniProt Q96LD8); format: functional;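 also: luminescence read-out of SENP8 inhibition, dose-response confirmation following an ultra-high-throughput screen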
T2 sequence (Q96LD8 whole entry): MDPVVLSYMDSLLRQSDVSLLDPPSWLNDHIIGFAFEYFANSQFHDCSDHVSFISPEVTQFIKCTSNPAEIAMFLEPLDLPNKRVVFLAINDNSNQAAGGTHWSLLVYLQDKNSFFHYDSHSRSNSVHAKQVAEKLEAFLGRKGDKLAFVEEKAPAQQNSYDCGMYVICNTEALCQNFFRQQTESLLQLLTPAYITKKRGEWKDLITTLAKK

[14] = molecular target: T3, Caspase-3 (Homo sapiens, UniProt P42574); format: functional;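 also: Dose-response selectivity test against caspase-3 for candidate inhibitors of sentrin-specific proteases (SENPs)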
T3 sequence (P42574 whole entry): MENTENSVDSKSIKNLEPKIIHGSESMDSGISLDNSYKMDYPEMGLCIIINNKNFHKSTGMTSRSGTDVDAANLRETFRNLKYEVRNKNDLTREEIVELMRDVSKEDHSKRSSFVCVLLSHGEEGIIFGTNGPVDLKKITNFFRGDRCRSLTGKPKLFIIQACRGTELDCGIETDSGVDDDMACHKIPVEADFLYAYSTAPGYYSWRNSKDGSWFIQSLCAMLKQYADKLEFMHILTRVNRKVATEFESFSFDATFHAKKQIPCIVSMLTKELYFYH

[15] = molecular target: T4, Sentrin-specific protease 6 (Homo sapiens, UniProt Q9GZR1); format: functional;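 also: Luminescence-based dose-response confirmatory assay of SENP6 inhibition, following up an ultra-high-throughput screen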
T4 sequence (Q9GZR1 whole entry): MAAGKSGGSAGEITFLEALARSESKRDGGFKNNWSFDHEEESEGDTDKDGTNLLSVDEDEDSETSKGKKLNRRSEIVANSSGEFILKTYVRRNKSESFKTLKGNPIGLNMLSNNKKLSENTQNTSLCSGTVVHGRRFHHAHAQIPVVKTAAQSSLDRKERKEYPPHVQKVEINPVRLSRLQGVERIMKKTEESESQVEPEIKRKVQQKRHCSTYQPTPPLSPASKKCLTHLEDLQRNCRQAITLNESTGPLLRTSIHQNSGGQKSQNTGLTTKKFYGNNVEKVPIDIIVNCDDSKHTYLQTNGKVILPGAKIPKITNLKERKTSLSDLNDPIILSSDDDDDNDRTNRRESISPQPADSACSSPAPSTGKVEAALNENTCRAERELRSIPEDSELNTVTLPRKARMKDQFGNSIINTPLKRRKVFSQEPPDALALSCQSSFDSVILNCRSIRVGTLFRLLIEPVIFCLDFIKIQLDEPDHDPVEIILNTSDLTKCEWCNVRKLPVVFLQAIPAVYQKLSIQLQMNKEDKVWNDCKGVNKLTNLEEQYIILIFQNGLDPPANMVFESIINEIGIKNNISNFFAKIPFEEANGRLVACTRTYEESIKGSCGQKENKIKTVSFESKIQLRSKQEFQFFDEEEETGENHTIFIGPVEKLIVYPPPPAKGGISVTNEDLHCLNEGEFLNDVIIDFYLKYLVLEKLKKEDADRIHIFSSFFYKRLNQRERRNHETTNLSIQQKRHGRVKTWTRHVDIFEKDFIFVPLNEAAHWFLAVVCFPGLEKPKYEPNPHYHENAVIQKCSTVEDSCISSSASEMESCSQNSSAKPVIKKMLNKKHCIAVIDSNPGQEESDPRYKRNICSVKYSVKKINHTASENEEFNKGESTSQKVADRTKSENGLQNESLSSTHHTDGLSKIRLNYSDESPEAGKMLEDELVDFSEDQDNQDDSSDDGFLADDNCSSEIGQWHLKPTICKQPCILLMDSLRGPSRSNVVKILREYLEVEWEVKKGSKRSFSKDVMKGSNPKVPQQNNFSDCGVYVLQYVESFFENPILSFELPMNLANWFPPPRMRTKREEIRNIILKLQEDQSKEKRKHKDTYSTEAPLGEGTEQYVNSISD

[16] = molecular target: T5, Sentrin-specific protease 7 (Homo sapiens, UniProt Q9BQF6); format: functional;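 also: Luminescence-based dose-response confirmation of ultra-high-throughput screening hits, measuring inhibition of SENP7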
T5 sequence (Q9BQF6 whole entry): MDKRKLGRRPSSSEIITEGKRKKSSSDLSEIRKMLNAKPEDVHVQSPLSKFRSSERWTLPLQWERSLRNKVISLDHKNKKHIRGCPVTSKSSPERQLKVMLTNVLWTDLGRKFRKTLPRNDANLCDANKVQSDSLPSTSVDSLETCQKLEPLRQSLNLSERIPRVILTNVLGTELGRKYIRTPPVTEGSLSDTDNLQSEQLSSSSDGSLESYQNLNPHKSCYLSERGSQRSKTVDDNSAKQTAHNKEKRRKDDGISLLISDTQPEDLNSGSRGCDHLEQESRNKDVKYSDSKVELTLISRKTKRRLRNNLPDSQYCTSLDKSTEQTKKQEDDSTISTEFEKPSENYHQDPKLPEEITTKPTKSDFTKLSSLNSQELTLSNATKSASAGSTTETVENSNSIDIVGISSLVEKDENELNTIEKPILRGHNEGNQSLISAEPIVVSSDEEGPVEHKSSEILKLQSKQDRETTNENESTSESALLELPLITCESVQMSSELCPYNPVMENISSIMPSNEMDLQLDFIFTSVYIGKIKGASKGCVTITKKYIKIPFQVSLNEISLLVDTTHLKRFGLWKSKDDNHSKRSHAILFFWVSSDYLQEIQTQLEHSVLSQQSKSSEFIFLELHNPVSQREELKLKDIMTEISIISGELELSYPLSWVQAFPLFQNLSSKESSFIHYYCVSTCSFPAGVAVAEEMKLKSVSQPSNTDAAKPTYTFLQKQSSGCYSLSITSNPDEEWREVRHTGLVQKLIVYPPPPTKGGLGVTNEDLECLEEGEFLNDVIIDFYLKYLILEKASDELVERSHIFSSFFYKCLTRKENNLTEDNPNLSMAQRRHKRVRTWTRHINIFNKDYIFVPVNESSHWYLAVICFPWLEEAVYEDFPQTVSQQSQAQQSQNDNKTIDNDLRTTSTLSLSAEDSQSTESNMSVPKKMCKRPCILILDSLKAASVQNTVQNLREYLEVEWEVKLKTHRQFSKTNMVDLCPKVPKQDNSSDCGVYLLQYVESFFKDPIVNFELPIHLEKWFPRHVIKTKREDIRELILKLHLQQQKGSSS

[17] = molecular target: T6, Cytochrome P450 1A2 (Homo sapiens, UniProt P05177);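 also: PubChem cytochrome P450 panel assay, CYP1A2 panel member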
T6 sequence (P05177 whole entry): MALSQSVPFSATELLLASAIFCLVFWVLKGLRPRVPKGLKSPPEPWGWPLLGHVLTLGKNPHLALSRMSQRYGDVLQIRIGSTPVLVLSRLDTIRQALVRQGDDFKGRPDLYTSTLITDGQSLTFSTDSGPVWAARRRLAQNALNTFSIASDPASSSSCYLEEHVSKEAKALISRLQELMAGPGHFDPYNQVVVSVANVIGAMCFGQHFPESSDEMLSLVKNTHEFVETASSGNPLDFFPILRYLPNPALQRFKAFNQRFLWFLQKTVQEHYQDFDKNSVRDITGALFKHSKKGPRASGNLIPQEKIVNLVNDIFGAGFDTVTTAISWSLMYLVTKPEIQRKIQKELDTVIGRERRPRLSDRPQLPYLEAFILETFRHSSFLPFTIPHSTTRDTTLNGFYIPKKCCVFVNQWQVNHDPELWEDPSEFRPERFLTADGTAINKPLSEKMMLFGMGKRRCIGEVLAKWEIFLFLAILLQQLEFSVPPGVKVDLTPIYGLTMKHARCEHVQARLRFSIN

Sequence of Genome polyprotein (P29990 2492-3391 limits assumed): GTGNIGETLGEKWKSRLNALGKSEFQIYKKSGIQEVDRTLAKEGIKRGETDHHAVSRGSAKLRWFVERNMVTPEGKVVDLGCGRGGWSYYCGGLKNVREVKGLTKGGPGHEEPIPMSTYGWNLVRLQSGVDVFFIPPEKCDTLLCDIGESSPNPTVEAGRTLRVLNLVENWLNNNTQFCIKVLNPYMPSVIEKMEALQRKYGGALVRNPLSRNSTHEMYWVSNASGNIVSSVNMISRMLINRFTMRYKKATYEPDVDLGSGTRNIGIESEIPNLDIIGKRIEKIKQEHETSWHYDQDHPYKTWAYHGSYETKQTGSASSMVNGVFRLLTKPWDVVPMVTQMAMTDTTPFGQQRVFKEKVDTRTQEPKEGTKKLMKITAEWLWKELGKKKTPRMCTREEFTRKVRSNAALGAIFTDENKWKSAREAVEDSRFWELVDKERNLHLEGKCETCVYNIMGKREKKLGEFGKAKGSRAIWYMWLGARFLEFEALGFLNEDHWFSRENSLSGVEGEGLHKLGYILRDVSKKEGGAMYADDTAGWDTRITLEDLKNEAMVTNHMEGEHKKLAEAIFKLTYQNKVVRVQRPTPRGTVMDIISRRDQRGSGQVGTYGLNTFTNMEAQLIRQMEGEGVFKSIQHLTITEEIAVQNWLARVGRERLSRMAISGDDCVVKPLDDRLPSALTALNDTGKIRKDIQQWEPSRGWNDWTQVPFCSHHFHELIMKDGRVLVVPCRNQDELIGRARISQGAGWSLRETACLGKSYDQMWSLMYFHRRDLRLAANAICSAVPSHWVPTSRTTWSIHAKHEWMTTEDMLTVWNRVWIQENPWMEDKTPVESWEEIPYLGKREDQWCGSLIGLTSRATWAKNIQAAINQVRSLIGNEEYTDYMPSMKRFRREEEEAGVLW

Structure (SMILES): NC(=S)N=Nc1c(O)cc(O)c2nc(O)ccc12
- IC50 [1]: 20 µM (active)
- CC50 [2]: > 40 µM (active)

Structure (SMILES): NC(=O)c1ccccc1N/C=C/C(=O)c1cccs1
- AC50 [3]: 22.5 µM (active)

Structure (SMILES): Cc1n[nH]c(O)c1C(c1c(C)n[nH]c1O)c1cn(Cc2ccc(Cl)c(Cl)c2)c2ccccc12
- CC50 [2]: 5.47 µM (active)
- EC50 [4]: 4.35 µM (active)
- EC50 [5]: 13.6 µM (active)
- EC50 [6]: 0.26 µM (active)
- EC50 [7]: 77.9 µM (active)
- CC50 [8]: 10.1 µM (active)

Structure (SMILES): CC(=O)Nc1ccc(C=NNc2nnc(NN=Cc3ccc(NC(C)=O)cc3)c3ccccc23)cc1
- AC50 [3]: 0.932 µM (active)

Structure (SMILES): O=C(Nc1nc2ccc(F)cc2s1)C1=COCCO1
- AC50 [3]: 2.38 µM (active)

Structure (SMILES): CCc1ccc(C(=O)COC(=O)c2cccc(N3C(=O)c4c(C)nc5ccccc5c4C3=O)c2)cc1
- AC50 [3]: 16.7 µM (active)
- AC50 [9]: 7.08 µM (inconclusive)
- AC50 [10]: 22.4 µM (inconclusive)
- AC50 [11]: 3.16 µM (inconclusive)

Structure (SMILES): Cc1ccc(S(=O)(=O)/N=C2\C=C(NS(=O)(=O)c3ccccc3)C(=O)c3ccccc32)cc1
- IC50 [1]: 35.8 µM (active)
- CC50 [2]: > 40 µM (active)
- AC50 [12]: 2.18 µM (active)

Structure (SMILES): COc1ccc(N2Cc3ccccc3C2=O)cc1
- AC50 [3]: 12.5 µM (active)

Structure (SMILES): COc1ccc(NC(=O)c2ccc(OCC3CCCO3)cc2)cc1Cl (centres undefined)
- IC50 [13]: > 100 µM (inactive)
- IC50 [14]: 15.6 µM (active)
- IC50 [15]: > 100 µM (inactive)
- IC50 [16]: 5.56 µM (active)

Structure (SMILES): Cc1sc2c(c1C)C(c1ccc(C(C)(C)C)cc1)=NCC(=O)N2CC(=O)Nc1nccs1
- CC50 [2]: > 40 µM (active)
- AC50 [17]: 22.4 µM (inconclusive)

Structure (SMILES): CCOc1ccc(/N=C/c2c(O)oc3ccccc3c2=O)cc1
- IC50 [13]: > 100 µM (inactive)
- IC50 [14]: 32.8 µM (active)
- IC50 [15]: 26.2 µM (active)
- IC50 [16]: 6.32 µM (active)

Reference: ChEMBL document CHEMBL1201862, “PubChem BioAssay data set” (2004)
